# Experimental data as given in patent publication US20100234306A1, “USE OF A PEPTIDE AS A THERAPEUTIC AGENT” (priority 2007, published 2010).
# Where no end group is shown, it is not given here.
# Test system: drug-resistant Mycobacterium tuberculosis
# Conditions: Mycobacterium tuberculosis resistant against PAS, streptomycin and isoniazid; Middlebrook 7H12, seven days; peptide 10 micrograms per ml
substance,measurement,value
MQMKKVLDS-OH [AIP-1],% inhibition,100.0%
